From ChEMBL document CHEMBL6109050, “Synthesis of novel pyrrolobenzodiazepine (PBD) C1-substituted monomers and dimers with DNA-binding activity and cytotoxicity” (Bioorg Med Chem Lett, 2025)

Test system: MDA-MB-231
Assay: Cytotoxicity against human MDA-MB-231 cells incubated for 72 hrs by MTT assay
Type: functional, cell-based
Settings: MDA-MB-231, 72 h

| Structure (SMILES) | IC50 [nM] |
| --- | --- |
| COc1cc2c(cc1OC)C(=O)N1CC[C@H](OCCCO[C@H]3CCN4C(=O)c5cc(OC)c(OC)cc5N=C[C@H]34)[C@H]1C=N2 | 236 |
| COC(=O)c1cc(-c2ccc(NC(=O)c3nc(NC(=O)CO[C@H]4CCN5C(=O)c6cc(OC)c(OC)cc6N=C[C@H]45)cn3C)cc2)cn1C | 36 |
